Legend:
[1] = system: Angiogenic human colon cancer (HT-29) cells; experiment: HT-29 viability assays; type: cell-based; conditions: HT-29, 2000 cells/well, 72 hours, untargeted particles
Text: (§1) Cell Lines All cell lines were purchased from the Tissue Culture Facility of the UNC Lineberger Comprehensive Cancer Center (Chapel Hill, N.C., United States of America) and cultured as per American Type Culture Collection (ATCC; Manassas, Va., United States of America) recommendations. HT29 cells (ATCC# HTB 38) were propagated in McCoy's 5A (Cellgro, Manassas, Va., United States of America) supplemented with 10% fetal bovine serum and 1% penicillin/streptomycin. MCF-7 cells (ATCC# HTB 22) were propagated in MEM Alpha (Cellgro, Manassas, Va., United States of America) supplemented with 10% fetal bovine serum, 1% penicillin/streptomycin, 1% sodium pyruvate, and 10 μg/mL insulin.
(§2) HT-29 viability assays: Angiogenic human colon cancer (HT-29) cells were grown in 96 well plates at 2000 cells/well to 100 μL total volume. After a 24 hour incubation, the media was replaced with 100 μL of drug solution containing 0.5% DMSO and 0.5% phosphate buffered saline (PBS) in media, with drug concentrations varying as indicated. All concentrations were performed in quadruplicate. Cell viability was measured after 72 hours using CellTiter 96 Aqueous One Solution Assay (Promega Corporation, Madison, Wis., United States of America), according to the manufacturer's protocol.

[2] = system: MCF-7 cells (breast cancer); experiment: MCF-7 Viability Assays; type: cell-based, human
Text: as §1, §2
MCF-7 Viability Assays. As a further control, cell viability assays were also performed using MCF-7 cells (breast cancer). MCF-7 cells were assayed under the same conditions as HT-29, and also at 4000 cells/well and 72 hours. Unlike with HT-29, Pt(IV) drugs are active. […] NCP-1′-b was also tested but at 2000 cells/well.

[3] = MCF-7, 4000 cells/well, 72 hours

Compound	cell death on treatment of HT-29 cells [1]	IC50 [2, 3] [µM]	IC50 ([2]; MCF-7, 2000 cells/well) [µM]
[NH2][Pt]([NH2])([Cl])([Cl])([O]C(=O)CCC(=O)O)[O]C(=O)CCC(=O)O [DSCP, c,c,t-Pt(NH3)2Cl2(O2CCH2CH2CO2H)2]	did not lead to any appreciable cell death	11.1	–
cis-Pt(NH3)2Cl2 [cisplatin]	–	10.7	2.1

From patent publication US20110135571A1, “HYBRID NANOPARTICLES AS ANTI-CANCER THERAPEUTIC AGENTS AND DUAL THERAPEUTIC/IMAGING CONTRAST AGENTS” (priority 2008, published 2011)
